According to patent publication US12414960B2, “Analogues of oleuropein and oleacein and uses thereof” (Attica Sciences Ltd., priority 2020, dated 2025):

Assays:
[1] = test system: MIA PaCa-2 pancreatic cancer cells; assay: Cell Glo luminescence cell growth assay, MIA PaCa-2; type: cell-based, human; conditions: NS = not statistically significant; for inhibition at 50 µM: Homo sapiens, MIA PaCa-2, 24 h, read-out: Effectiveness to suppress MIA PaCa-2 cell growth (cell growth inhibition); for Effectiveness to suppress MIA PaCa-2 cell growth (cell growth inhibition): 50 uM, 24 h
Text: The CellTiter-Glo® Luminescent Cell Viability Assay (Promega Corporation; Madison, WI) is a homogeneous method of determining the number of viable cells in culture based on quantitation of the ATP present, an indicator of metabolically active cells. The homogeneous assay procedure involves adding the single reagent (CellTiter-Glo® Reagent) directly to cells cultured in serum-supplemented medium. The homogeneous “add-mix-measure” format results in cell lysis and generation of a luminescent signal proportional to the amount of ATP present. The amount of ATP is directly proportional to the number of cells present in culture.
Cancer cells (3,000 cells/well) were harvested in a 96-well plate. Then, the cancer cells were treated with GS compounds and incubated for 24 hours. The MT Cell Viability Substrate, NanoLuc® Enzyme and cell culture medium was equilibrated to 37° C. The 2× RealTime-Glo™ reagent was prepared by diluting the MT Cell Viability Substrate and NanoLuc® Enzyme in 37° C. cell culture medium to a 2× concentration for each reagent. For example, 1 mL of 2× RealTime-Glo™ reagent was prepared by adding 2 μL of MT Cell Viability Substrate, 1,000×, and 2 μL of NanoLuc® Enzyme, 1,000×, to 996 μL of cell culture medium to form the 2× RealTime-Glo™ reagent. Then, an equal volume of 2× RealTime-Glo™ reagent was added to the cancer cells. The cells were kept for ˜20 minutes in the cell culture incubator and then luminescence was measured by using a plate-reading luminometer.
MIA PaCa-2 is a human pancreatic ductal adenocarcinoma cell line derived from the carcinoma of a person.
(§1) The effects of exemplary compounds on cancer cell lines and one non-tumorigenic cell line (control) were investigated using a high throughput screening assay. More specifically, the effects of the GS compounds on cell growth was evaluated by the XTT assay for cell lines HepG2, HeLa, MCF7 ER+, MDA-MB-231, and MKN-45, and by the Cell Glo luminescence assay for cell lines MIA PaCa-2, HCT-116, MCF-10A, and PANC-1.

HepG2 liver cancer cells = assay: XTT cell growth assay, HepG2; type: cell-based, human; conditions: NS = not statistically significant; for inhibition at 50 µM: Homo sapiens, HepG2, 24 h, read-out: Effectiveness to suppress HepG2 cell growth (cell growth inhibition)
Text: The XTT assay is used to measure cellular metabolic activity as an indicator of cell viability, proliferation and cytotoxicity. This non-radioactive, colorimetric assay system was first described by Scudiero, et al. in 1988 (Paull, Kenneth D. et al., J Heterocycl Chem, 1988, 25: 911-914; Scudiero, Dominic A. et al., Cancer Res, 1988, 48: 4827-4833) and improved in subsequent years by several other investigators (Weislow, Owen S. et al., J Natl Cancer Inst, 1989, 81(8): 577-586; Roehm, N. W. et al., J Immunol Methods, 1991, 142: 257-265).
The XTT assay is based on the reduction of a yellow tetrazolium salt (sodium 3′-[1-(phenylaminocarbonyl)-3,4-tetrazolium]-bis (4-methoxy6-nitro) benzene sulfonic acid hydrate or XTT) to an orange formazan dye by metabolically active cells (FIG. 8). The formazan dye formed is soluble in aqueous solutions and is directly quantified using a scanning multiwell spectrophotometer (ELISA reader). An increase in number of living cells results in an increase in the overall activity of mitochondrial dehydrogenases in the sample. This increase directly correlates to the amount of orange formazan formed, as monitored by the absorbance. Reduced number of living cells leads to reduced metabolism of quaternary salt and therefore reduced absorption.
Cell viability was assessed using the XTT assay kit (Roche, Mannheim, Germany) as described previously (Kouka, Paraskevi et al., Oxid Med Cell Longev. 2019, Article ID 1870965). Briefly, cancer cells per well were cultured in a 96-well plate in Dulbecco's modified Eagle's medium (DMEM). Following a 24 h incubation, 5, 10 and 50 μM of the tested GS compound was diluted in a serum-free DMEM and administered for 24 h. Subsequently, 50 μL of the XTT reagent (50:1) was added to each well. After 4 h of incubation, the absorbance was monitored at 450 nm and also at 630 nm as a reference wavelength in a BioTek ELx800 microplate reader (BioTek Instruments Inc., Winooski, VT, USA). As a negative control, samples containing serum-free DMEM only were used.
Hep G2 (or HepG2) is a human liver cancer cell line. Hep G2 is an immortal cell line which was derived from the liver tissue of an adolescent with a well-differentiated hepatocellular carcinoma. Hep G2 cells are a suitable in vitro model system for the study of polarized human hepatocytes.
as §1

With `C/C=C(/C=O)[C@@H](CC=O)CC(=O)OCCc1ccc(O)cc1` [GS19, (3S,4E)-4-formyl-3-(2-oxoethyl)-4-hexenoic acid 2-(4-hydroxyphenyl)ethyl ester, reference compound] as the compound, how does the inhibition at 50 µM [1] read?
Its inhibition at 50 µM is 30%.

With `C/C=C(/C=O)[C@@H](CC=O)CC(=O)OCCOc1ccccc1` [GS24, (3S,4E)-4-formyl-3-(2-oxoethyl)-4-hexenoic acid 2-phenoxyethyl ester] as the compound, how does the inhibition at 50 µM [1] read?
The inhibition at 50 µM was 28%.

And the inhibition at 50 µM (HepG2 liver cancer cells)?
Its inhibition at 50 µM is 57.9%.

Which “Effectiveness to suppress MIA PaCa-2 cell growth (cell growth inhibition)” value [1] does the source give for `C/C=C(/C=O)[C@@H](CC=O)CC(=O)OCCCCCCCCCCCCCCCC` [GS26, (3S,4E)-4-formyl-3-(2-oxoethyl)-4-hexenoic acid hexadecyl ester] here?
Its value is “best efficacy”.

And the inhibition at 50 µM [1]?
Its inhibition at 50 µM is 70%.

What about the inhibition at 50 µM (HepG2 liver cancer cells) of the same compound?
Its inhibition at 50 µM is 50%.

Which results are given for `C/C=C(/C=O)[C@@H](CC=O)CC(=O)SCCc1ccccc1` [GS27, S-phenethyl (3S,4E)-4-formyl-3-(2-oxoethyl)hex-4-enethioate]?
Effectiveness to suppress MIA PaCa-2 cell growth (cell growth inhibition) [1]: best efficacy; inhibition at 50 µM [1]: 91%; inhibition at 50 µM (HepG2 liver cancer cells): 40.9%

How did the “Effectiveness to suppress MIA PaCa-2 cell growth (cell growth inhibition)” value [1] turn out when `C/C=C(/C=O)[C@@H](CC=O)CC(=O)OCCCSC` [GS28, (3S,4E)-4-formyl-3-(2-oxoethyl)-4-hexenoic acid 3-(methylthio)propyl ester] was run?
The value was “best efficacy”.

And the inhibition at 50 µM [1]?
The inhibition at 50 µM was 79%.

And the “Effectiveness to suppress HepG2 cell growth (cell growth inhibition)” value (HepG2 liver cancer cells; 50 uM, 24 h)?
Its value is “best efficacy”.

What about the inhibition at 50 µM (HepG2 liver cancer cells) of the same compound?
The inhibition at 50 µM was 69.7%.
